The subject of one data set is Male F344 rats. Briefly: Four-day toxicity in the rat (Experiment 8). The data set is classed as in vivo. On the procedure: Animals: Male F344 rats were used, each group consisting of 5 animals.
Drug preparation and administration: the compound of Example 19(b) was dissolved in distilled water and administered subcutaneously to the rats in a volume of 0.4 ml per 100 g of body weight at 09:00 for 4 days. Twenty-four hours after the final dose the rats were anesthetized with diethyl ether and their blood and organs were collected, weighed and used for pathological examination.

On the set-up of data set [1]: species or system Male albino rabbits. The following applies: rabbit, in vivo. The procedure: Animals: Male albino rabbits, each weighing about 2.5 kg, were used in a group of 5 animals.
Drug preparation and administration: the compound of Example 19(b) was dissolved in a 0.1 M sodium phosphate buffer (pH 7.2) and administered topically to one eye of the rabbit twice a day at […] and 16:00 for one week, although the administration at 16:00 on the final day was not carried out. The other group was left intact as a control. Four hours after the final administration at 09:00, blood was collected from the marginal ear vein of the rabbit in a syringe, and was centrifuged to obtain the serum.
Biochemical analysis of the serum: the rabbit serum was biochemically analyzed for trigly.ceride (TG), total cholesterol (T-CHO), alkaline phosphatase (ALP), total protein (TP), phospholipid (PL), urea nitrogen (UN), glucose (GLU), transaminase (GOT and GPT), albumin (ALB), total calcium (CA), inorganic phosphorus (IP), creatinine (CRE), and ratio of albumin to globulin (A/G). The analysis was carried out by using an autoanalyzer (HITACHI, Japan).

Structures are written as SMILES.

These results are taken from patent EP0319316A2, “Griseolic acid monoesters, their preparation and use” (SANKYO COMPANY LIMITED, priority 1987, dated 1989).

Take `CC(=O)Oc1ccc(COC(=O)C23C=C(C(O)C(=O)O)OC2C(O)C(n2cnc4c(N)ncnc42)O3)cc1` (centres unmarked) [Example 19(b), 9'-(4-Acetoxybenzyl) griseolate]: the death rate with Male F344 rats (dose 6.25 mg/kg subcutaneously for 4 days) is 0/5. In the data set on Male F344 rats (dose 12.5 mg/kg subcutaneously for 4 days), the death rate is 0/5. Besides, the death rate in the data set on Male F344 rats (dose 25 mg/kg subcutaneously for 4 days) is on record as 0/5. Further, in the data set on Male F344 rats (dose 50 mg/kg subcutaneously for 4 days), the death rate is 5/5. In data set [1], this molecule registered an A/G of 15.6 ± 2.5, an ALB of 5.0 ± 0.1 g/dL, an ALP of 379.0 ± 49.0 IU/ℓ and a CA of 14.0 ± 0.2 mg/dL. In data set [1], the CRE was 0.90 ± 0.05 mg/dL, the GLU is 137.0 ± 3.0 mg/dL, the GOT was 9.6 ± 1.5 IU/ℓ and the GPT turned out to be 19.6 ± 3.9 IU/ℓ. Also, in data set [1], the PL turned out to be 91.8 ± 4.6 mg/dL, the T-CHO worked out at 45.0 ± 3.2 mg/dL, the TG is 58.4 ± 5.4 mg/dL and the TP came out at 5.3 ± 0.2 g/dL. In data set [1], this molecule yielded a UN of 17.9 ± 0.9 mg/dL.
